pIC50: −log10 of the molar value. Values after ≈ are worked out from the molar mass of the structure shown.
Assays:
[1] = target: human histamine 4 receptor (hH4R) (Homo sapiens (Human), UniProt Q9H3N8); assay: Binding affinity of human histamine 4 receptor (hH4R), [3H] labeled histamine displacement; conditions: hH4R-overexpressed cell membrane, [3H] histamine
Description: 20 μL of the prepared compound solution was transferred to each well of a 96-well plate, and then 20 μL of 100 μM histamine diluted with analysis buffer solution and 1% DMSO were transferred to each well to calculate non-specific binding and total binding degree. 25 μg of human histamine 4 receptor-overexpressed cell membrane (PerkinElmer) was diluted into 160 μL of analysis buffer solution and that was transferred to each well. [^3H] labeled histamine (PerkinElmer) was diluted into 1 μM concentration, 20 μL was allocated in each well, and then it was kept in a 27° C. incubator for 30 minutes. After the reaction, 200 μL of the mixture was transferred to a glass fiber plate in which 0.5% polyethylene amine was presoaked, and then non-binding [^3H] labeled histamine was removed in vacuum. After 4 times washing with 200 μL of washing buffer solution (50 mM tris-HCl, pH 7.4), the plate was dried in a 37° C. oven for 18 hours. 100 μL of betascint cocktail solution was added to each well, and after 1 hour CPM (count per minute) value of [^3H] labeled histamine was measured by using Wallac beta-counter TriLux.

[2] = target: human histamine 3 receptor (hH3R) (Homo sapiens (Human), UniProt Q9Y5N1); assay: Binding affinity of human histamine 3 receptor (hH3R), [3H] labeled N-α-methylhistamine displacement; conditions: hH3R-overexpressed cell membrane, [3H] N-α-methylhistamine
Chain of human histamine 3 receptor (hH3R) (Q9Y5N1 whole entry): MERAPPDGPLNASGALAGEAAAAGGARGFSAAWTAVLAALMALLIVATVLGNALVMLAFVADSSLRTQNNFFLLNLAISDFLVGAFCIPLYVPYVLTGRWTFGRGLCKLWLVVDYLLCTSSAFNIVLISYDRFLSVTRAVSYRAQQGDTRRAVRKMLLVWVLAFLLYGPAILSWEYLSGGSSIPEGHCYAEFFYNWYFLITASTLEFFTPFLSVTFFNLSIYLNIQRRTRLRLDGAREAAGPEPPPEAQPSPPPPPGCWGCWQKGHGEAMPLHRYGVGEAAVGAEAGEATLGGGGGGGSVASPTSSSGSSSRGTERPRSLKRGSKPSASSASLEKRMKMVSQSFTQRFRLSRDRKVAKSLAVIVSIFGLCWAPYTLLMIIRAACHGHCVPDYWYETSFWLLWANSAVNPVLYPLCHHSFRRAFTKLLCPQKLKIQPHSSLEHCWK
In short: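 Membranes from cells overexpressing hH3R (15 μg) were incubated with compound and [3H]N-α-methylhistamine (20 μM stock) in 50 mM Tris-HCl pH 7.4, 5 mM MgCl2 for 30 min at 27 °C. Bound radioligand was counted by scintillation after filtration; 200 μM (R)(−)-α-methylhistamine stock defined non-specific binding; IC50 derived.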

[3] = Solubility in artificial gastrointestinal tract solution; type: physicochemical; conditions: thermodynamic from solid; for solubility at 1 h: fassgf or other biorelevant, first solution pH 1.2, 2 mg/mL sample, 37° C. 1 hour; for solubility at 2 h: fassif, second solution pH 6.5, 2 mg/mL sample, 37° C. 2 hours
Description: 2.0 g of sodium chloride was added in 7.0 mL of 37% of hydrochloric acid and water to make the total volume of 1 L. The pH was adjusted to exactly 1.2 with 1N sodium hydroxide or 1N hydrochloric acid. A small amount (20 mL) of this solution was taken and added in 25 μL of triton X-100 to make the total volume of 25 mL.
0.348 g sodium hydroxide, 3.438 g NaH2PO4, 6.186 g sodium chloride and water were added to make the total volume of 1 L. The pH was adjusted to exactly 6.5 with 1N sodium hydroxide or 1N hydrochloric acid. A small amount (20 mL) of this solution was taken and 41.25 mg of sodium taurocholate hydrate and 25 μL of 750 mM lecithin dissolved in ethanol was added to make the total volume of 25 mL.
The heated test sample solutions were filtered to remove undissolved compounds therein. Finally, 100 μL of the completely compound-dissolved solution was sampled and 100 μL of CH3CN was added thereto to make the test sample solution. For each analysis of the test sample solution, the solubility was measured by using liquid chromatography.

[4] = Mouse pharmacokinetics (oral); type: in vivo; conditions: plasma, 50 mg/kg, ICR mouse, 5 mg/mL solution at 10 mL/kg; for AUC(0-inf): read-out: Mouse pharmacokinetics AUCinf; for half-life: read-out: Mouse pharmacokinetics t1/2 (converted)
Description: The weight of each ICR mouse and SD rat was properly 20˜30 g and 200˜300 g, and dosage of the compound of the present invention was 10 mL/kg for mice and 5 mL/kg for rats, and administered orally using Zonde. Blood collection was performed at 0.25, 0.5, 1, 2, 4, 6, 8 and 24 hours by orbital venous blood collection using a capillary tube coated with an anticoagulant, and then plasma was isolated using a centrifuge and kept in a freezer.
Plasma collected from animals and standard concentration material were pretreated using solid-phase extraction, and concentration of the compound of the invention was determined using a liquid chromatography mass spectrometer (Agilent HPLC, API-3000).
According to the resulting concentration value, the pharmacokinetics parameter was found using WinNonlin (Version 6.2) and half-life (t1/2), maximum blood concentration (Cmax) and infinite area under the curve (AUCinf) are shown in Tables 6 and 7 below.

[5] = Metabolic stability in mouse microsome; conditions: mouse microsome 1 mg/mL, 5 μM compound, 1 mM NADPH
[6] = Metabolic stability in human microsome; conditions: human microsome 1 mg/mL, 5 μM compound, 1 mM NADPH
[7] = target: human serotonin 3 receptor (human 5-HT3 receptor) (Homo sapiens (Human), UniProt P46098); assay: Binding affinity of human serotonin 3 receptor (performed at Cerep)
Chain of human serotonin 3 receptor (human 5-HT3 receptor) (P46098 24-478): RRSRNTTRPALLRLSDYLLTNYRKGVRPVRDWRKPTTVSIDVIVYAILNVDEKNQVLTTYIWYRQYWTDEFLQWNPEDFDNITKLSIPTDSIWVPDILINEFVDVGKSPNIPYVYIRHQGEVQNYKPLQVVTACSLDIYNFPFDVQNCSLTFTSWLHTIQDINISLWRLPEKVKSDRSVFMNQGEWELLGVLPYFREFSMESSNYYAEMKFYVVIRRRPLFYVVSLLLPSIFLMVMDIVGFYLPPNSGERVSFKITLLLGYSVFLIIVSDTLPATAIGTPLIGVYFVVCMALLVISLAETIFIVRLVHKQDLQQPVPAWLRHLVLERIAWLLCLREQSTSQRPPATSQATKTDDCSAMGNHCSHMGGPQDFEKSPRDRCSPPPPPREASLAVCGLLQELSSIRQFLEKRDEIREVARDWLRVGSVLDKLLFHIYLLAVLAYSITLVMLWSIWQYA
Description: The binding assays of the human serotonin 3 receptor for present invention were performed at Cerep (Poitiers, France), and the results of analysis are shown in Table 3.

[8] = artificial gastrointestinal tract solution

Chain of human histamine 4 receptor (hH4R) (Q9H3N8 whole entry): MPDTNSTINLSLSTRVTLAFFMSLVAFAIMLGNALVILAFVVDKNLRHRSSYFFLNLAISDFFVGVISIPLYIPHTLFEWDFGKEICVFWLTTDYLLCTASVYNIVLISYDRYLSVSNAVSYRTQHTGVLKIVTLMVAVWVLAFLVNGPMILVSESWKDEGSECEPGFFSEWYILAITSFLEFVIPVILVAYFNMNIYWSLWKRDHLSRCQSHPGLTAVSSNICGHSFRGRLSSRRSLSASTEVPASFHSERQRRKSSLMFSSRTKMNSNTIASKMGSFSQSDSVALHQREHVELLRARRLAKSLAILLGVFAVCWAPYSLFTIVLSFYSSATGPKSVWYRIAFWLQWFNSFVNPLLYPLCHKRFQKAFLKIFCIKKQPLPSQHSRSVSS

Brc1cnc2nc(N3CCNCC3)c3nncn3c2c1 [Compound 16, 8-Bromo-4-(piperazin-1-yl)pyrido[2,3-e][1,2,4]triazolo[4,3-a]pyrazine]
pIC50 [1]: 7.19
pIC50 [2]: < 4.00
solubility at 1 h [3, 8]: 1.93 mg/mL (≈ 5.78 mM)
solubility at 2 h [3, 8]: 0.758 mg/mL (≈ 2.27 mM)
Cmax [4]: 8.27 µg/mL
AUC(0-inf) [4]: 15.9 µg·h/mL
half-life [4]: 1.18 h
Metabolic stability (CLh. int), Mouse [5]: 10420 µL/min/mg
Metabolic stability (CLh. int), Human [6]: 4080 µL/min/mg

CNC1CN(c2nc3ncc(Br)cc3n3cnnc23)C1.Cl [Compound 68, 1-(8-Bromopyrido[2,3-e][1,2,4]triazolo[4,3-a]pyrazin-4-yl)-N-methylazetidin-3-amine hydrochloride]
pIC50 ([1]; hydrochloride): 6.89
pIC50 [2]: < 4.00
solubility at 1 h [3, 8]: 1.82 mg/mL
solubility at 2 h [3, 8]: 1.76 mg/mL
Metabolic stability (CLh. int), Mouse [5]: 3930 µL/min/mg
Metabolic stability (CLh. int), Human [6]: 300 µL/min/mg

CNC1CN(c2nc3ncc(Br)cc3c3ccnn23)C1 [Compound 110, 1-(9-bromopyrazolo[1,5-c]pyrido[3,2-e]pyrimidin-5-yl)-N-methylazetidin-3-amine]
pIC50 [1]: 6.80
pIC50 [2]: < 4.00
solubility at 1 h [3, 8]: 1.87 mg/mL (≈ 5.62 mM)
solubility at 2 h [3, 8]: 0.708 mg/mL (≈ 2.13 mM)
Metabolic stability (CLh. int), Mouse [5]: 1780 µL/min/mg
Metabolic stability (CLh. int), Human [6]: 3880 µL/min/mg

C[C@H]1CN(c2nc3ncc(Cl)cc3n3cnnc23)CCN1 [Compound 19, (S)-8-chloro-4-(3-methylpiperazin-1-yl)pyrido[2,3-e][1,2,4]triazolo[4,3-a]pyrazine]
pIC50 [1]: 6.12
pIC50 [2]: < 4.00
solubility at 1 h [3, 8]: 1.98 mg/mL (≈ 6.5 mM)
solubility at 2 h [3, 8]: 1.7 mg/mL (≈ 5.58 mM)
Metabolic stability (CLh. int), Mouse [5]: 26160 µL/min/mg
Metabolic stability (CLh. int), Human [6]: 960 µL/min/mg

C[C@H]1CN(c2nc3ncc(Cl)cc3n3cnnc23)CCN1C [Compound 20, (S)-8-chloro-4-(3,4-dimethylpiperazin-1-yl)pyrido[2,3-e][1,2,4]triazolo[4,3-a]pyrazine]
pIC50 [1]: 6.42
pIC50 [2]: < 4.00
solubility at 1 h [3, 8]: 2.07 mg/mL (≈ 6.51 mM)
solubility at 2 h [3, 8]: 1.65 mg/mL (≈ 5.18 mM)
Metabolic stability (CLh. int), Mouse [5]: 7570 µL/min/mg
Metabolic stability (CLh. int), Human [6]: 1620 µL/min/mg

Cc1nc2c3cc(Cl)cnc3nc(N3CCNCC3)n2n1 [Compound 32, 9-Chloro-2-methyl-5-(piperazin-1-yl)pyrido[3,2-e][1,2,4]triazolo[1,5-c]pyrimidine]
pIC50 [1]: 7.14
pIC50 [2]: < 4.00
solubility at 1 h [3, 8]: 1.35 mg/mL (≈ 4.43 mM)
solubility at 2 h [3, 8]: 1.15 mg/mL (≈ 3.79 mM)
Cmax [4]: 10.1 µg/mL
AUC(0-inf) [4]: 74.9 µg·h/mL
half-life [4]: 5.39 h
Metabolic stability (CLh. int), Mouse [5]: 8390 µL/min/mg
Metabolic stability (CLh. int), Human [6]: 1030 µL/min/mg

CNC1CN(c2nc3ncc(C)cc3n3cnnc23)C1 [Compound 50, N-Methyl-1-(8-methylpyrido[2,3-e][1,2,4]triazolo[4,3-a]pyrazin-4-yl)azetidin-3-amine]
pIC50 [1]: 6.72
pIC50 [2]: < 4.00
solubility at 1 h [3, 8]: 1.99 mg/mL (≈ 7.38 mM)
solubility at 2 h [3, 8]: 1.87 mg/mL (≈ 6.95 mM)
Metabolic stability (CLh. int), Mouse [5]: 9080 µL/min/mg
Metabolic stability (CLh. int), Human [6]: 1900 µL/min/mg

CNC1CN(C2=Nc3ncc(Br)cc3N3CCN=C23)C1 [Compound 107, 1-(8-bromo-1,2-dihydroimidazo[1,2-a]pyrido[2,3-e]pyrazin-4-yl)-N-methylazetidin-3-amine]
pIC50 [1]: 6.21
pIC50 [2]: < 4.00
solubility at 1 h [3, 8]: 1.42 mg/mL (≈ 4.22 mM)
solubility at 2 h [3, 8]: 1.57 mg/mL (≈ 4.68 mM)
Metabolic stability (CLh. int), Mouse [5]: 8150 µL/min/mg
Metabolic stability (CLh. int), Human [6]: 5160 µL/min/mg

CNC1CN(c2nc3ncc([N+](=O)[O-])cc3n3cnnc23)C1 [Compound 111, N-methyl-1-(8-nitropyrido[2,3-e][1,2,4]triazolo[4,3-a]pyrazin-4-yl)azetidin-3-amine]
pIC50 [1]: 6.62
pIC50 [2]: < 4.00
solubility at 1 h [3, 8]: 1.9 mg/mL (≈ 6.33 mM)
solubility at 2 h [3, 8]: 1.07 mg/mL (≈ 3.55 mM)
Metabolic stability (CLh. int), Mouse [5]: 5230 µL/min/mg
Metabolic stability (CLh. int), Human [6]: 4200 µL/min/mg

CNC1CN(c2nc3ncc(Cl)cc3n3nnnc23)C1 [Compound 93, 1-(8-Chloropyrido[2,3-e]tetrazolo[1,5-a]pyrazin-4-yl)-N-methylazetidin-3-amine]
pIC50 [1]: 7.19
pIC50 [2]: < 4.00
inhibition at 10 µM ([7]; read-out: % inhibition degree at 10 μM, human serotonin 3 receptor (h5-HT3R)): 18%
pIC50 ([7]; read-out: Binding affinity (IC50) of human serotonin 3 receptor (h5-HT3R)): < 5.00
solubility at 1 h [3, 8]: 1.97 mg/mL (≈ 6.78 mM)
solubility at 2 h [3, 8]: 1.31 mg/mL (≈ 4.49 mM)
Cmax [4]: 10.8 µg/mL
AUC(0-inf) [4]: 121 µg·h/mL
half-life [4]: 15.6 h
Metabolic stability (CLh. int), Mouse [5]: 9470 µL/min/mg
Metabolic stability (CLh. int), Human [6]: 4480 µL/min/mg

CNC1CN(c2nc3ncc(Cl)cc3n3ccnc23)C1 [Compound 88, 1-(8-Chloroimidazo[1,2-a]pyrido[2,3-e]pyrazin-4-yl)-N-methylazetidin-3-amine]
pIC50 [1]: 6.59
pIC50 [2]: < 4.00
solubility at 1 h [3, 8]: 1.82 mg/mL (≈ 6.31 mM)
solubility at 2 h [3, 8]: 1.58 mg/mL (≈ 5.46 mM)
Metabolic stability (CLh. int), Mouse [5]: 11770 µL/min/mg
Metabolic stability (CLh. int), Human [6]: 2870 µL/min/mg

CNC1CN(c2nc3ncc(C(F)(F)F)cc3n3cnnc23)C1 [Compound 52, N-Methyl-1-(8-(trifluoromethyl)pyrido[2,3-e][1,2,4]triazolo[4,3-a]pyrazin-4-yl)azetidin-3-amine]
pIC50 [1]: 6.66
pIC50 [2]: < 4.00
solubility at 1 h [3]: 1.67 mg/mL (≈ 5.18 mM)
solubility at 2 h [3]: 1.46 mg/mL (≈ 4.53 mM)
Metabolic stability (CLh. int), Mouse [5]: 2050 µL/min/mg
Metabolic stability (CLh. int), Human [6]: 1320 µL/min/mg

CNC1CN(c2nc3ncc(Br)cc3n3nnnc23)C1.Cl [Compound 69, 1-(8-Bromopyrido[2,3-e]tetrazolo[1,5-a]pyrazin-4-yl)-N-methylazetidin-3-amine hydrochloride]
pIC50 [1]: 7.46
pIC50 [2]: < 4.00
solubility at 1 h [3, 8]: 1.81 mg/mL
solubility at 2 h [3, 8]: 1.92 mg/mL
Metabolic stability (CLh. int), Mouse [5]: 14040 µL/min/mg
Metabolic stability (CLh. int), Human [6]: 5690 µL/min/mg

— US9586959B2, “Substituted tricyclic heterocycles as histamine 4 receptor inhibitors” (C&C RESEARCH LABORATORIES, priority 2011, dated 2017)
